23 compounds from ChEMBL document CHEMBL1157396, “Dihydroagarofuranoid sesquiterpenes, a lignan derivative, a benzenoid, and antitubercular constituents from the stem of Microtropis japonica” (2008) can be followed below.

The test relates to Mycobacterium tuberculosis. Nature of the test: Antitubercular activity against Mycobacterium tuberculosis H37Rv after 2 weeks by agar dilution method. The settings on record: 336 h. It counts as functional. For orientation: In agar dilution, organisms are placed on agar that contains the substance at set levels.

≈ marks a conversion by molar mass, not a printed value. Where only a bound is given, the exact number is not on record here.

For `CC(=O)OC[C@]12[C@@H](OC(=O)c3ccccc3)C[C@@H]3[C@@H](OC(C)=O)[C@]1(OC3(C)C)[C@H](C)C[C@H](OC(C)=O)[C@@H]2O` [CELAHIN C], the MIC was determined as 31.3 µM (≈ 16.7 µg/mL). As for `COc1cc(C(=O)C(CO)c2cc(OC)c(O)c(OC)c2)ccc1O` (stereo not drawn) [5-METHOXYEVOFOLIN B], the MIC turned out to be 215 µM (≈ 74.9 µg/mL). The compound `COc1cc(O)c2c(c1)O[C@H](c1ccc(O)cc1)CC2=O` [SAKURANETIN] returned an MIC of 209 µM (≈ 59.8 µg/mL). Take `COc1cc(/C=C\C(=O)OC[C@H](Cc2ccc(O)c(OC)c2)[C@H](COC(=O)/C=C\c2ccc(O)c(OC)c2)Cc2ccc(O)c(OC)c2)ccc1O`: 122 µM (≈ 87.2 µg/mL) was the least that counted as inhibitory (MIC). This MIC is about 1.7-fold lower than that of the compound before. As for `COc1cc(/C=C/C(=O)OC[C@H](Cc2ccc(O)c(OC)c2)[C@H](COC(=O)/C=C/c2ccc(O)c(OC)c2)Cc2ccc(O)c(OC)c2)ccc1O`, 126 µM (≈ 90.1 µg/mL) was the least that counted as inhibitory (MIC). In turn, `COc1cc(C=O)ccc1O` [VANILLIN] had an MIC of more than 400 µM. `COc1cc(C(=O)CCO)ccc1O`: the MIC was determined as 153 µM (≈ 30 µg/mL). As to `CC(=O)O[C@H]1[C@@H](OC(=O)c2ccccc2)C[C@@H](C)[C@]23OC(C)(C)[C@H](C[C@H](OC(=O)c4ccccc4)[C@]12COC(=O)c1ccccc1)[C@H]3OC(=O)c1ccccc1` [FOKIENAGAROFURAN D], the lowest concentration to inhibit growth (MIC) was 105 µM (≈ 79.9 µg/mL). In the case of `CC(=O)O[C@H]1C[C@@H](COC(=O)c2ccccc2)[C@]23OC(C)(C)[C@H](C[C@H](OC(=O)c4ccccc4)[C@]2(C)[C@H]1OC(C)=O)[C@H]3OC(=O)c1ccccc1`, the MIC amounted to 95 µM (≈ 66.4 µg/mL). In turn, `COc1cc(C(=O)C(CO)c2ccc(O)c(OC)c2)ccc1O` (stereo not drawn) [EVOFOLIN B] registered an MIC of 235 µM (≈ 74.8 µg/mL). The compound `CC[C@H](CC[C@@H](C)[C@H]1CC[C@H]2[C@@H]3C(=O)C=C4C[C@@H](O)CC[C@]4(C)[C@H]3CC[C@]12C)C(C)C` displayed an MIC of 128 µM (≈ 54.9 µg/mL). Against the preceding compound, the MIC is about 1.8-fold lower. The same measure for `CC[C@H](CC[C@@H](C)[C@H]1CC[C@H]2[C@@H]3CC=C4C[C@@H](O)CC[C@]4(C)[C@H]3CC[C@]12C)C(C)C` [BETA-SITOSTEROL]: more than 400 µM. With `CC(=O)O[C@H]1C[C@@H](C)[C@]23OC(C)(C)[C@H]([C@H](OC(=O)c4ccccc4)[C@H](OC(=O)c4ccccc4)[C@]2(COC(=O)c2ccccc2)[C@H]1OC(C)=O)[C@H]3OC(C)=O`, the MIC came to 79.3 µM (≈ 60 µg/mL). Compound `COc1cc(C=O)cc(OC)c1O` [SYRINGALDEHYDE] returned an MIC of more than 400 µM. Compound `CCOc1cc(C=O)ccc1O` [ETHYL VANILLIN] came in with an MIC of more than 400 µM. Compound `COc1cc2ccc(=O)oc2cc1OC` [SCOPARONE] came in with an MIC of 388 µM (≈ 80 µg/mL).

For the compound `CC(=O)O[C@@H]1[C@H]2C[C@H](OC(=O)c3ccccc3)[C@]3(COC(=O)c4ccccc4)[C@@H](OC(C)=O)[C@@H](OC(=O)c4ccccc4)C[C@@H](C)[C@@]13OC2(C)C` [FOKIENAGAROFURAN A], 85.9 µM (≈ 60 µg/mL) was the least that counted as inhibitory (MIC). This MIC is about 4.5-fold lower than that of the compound before. The same measure for `CN1CCCC1=O` [METHYLPYRROLIDONE]: more than 400 µM; for `COc1cc(/C=C/C=O)ccc1O` [CONIFERYL ALDEHYDE]: more than 400 µM; for `CC(=O)OC[C@]12[C@@H](OC(=O)c3ccccc3)C[C@@H]3[C@@H](OC(=O)c4ccccc4)[C@]1(OC3(C)C)[C@H](C)C[C@H](OC(=O)c1ccccc1)[C@@H]2OC(C)=O`: 39.6 µM (≈ 27.7 µg/mL). Regarding `COc1cc(C(=O)O)ccc1O` [VANILLIC ACID], inhibition of growth (MIC) required 238 µM (≈ 40 µg/mL). This MIC lies about 6-fold higher than the previous one. For the compound `CC(=O)OC[C@]12[C@@H](OC(=O)c3ccccc3)C[C@@H]3[C@@H](OC(C)=O)[C@]1(OC3(C)C)[C@H](C)C[C@H](O)[C@@H]2OC(C)=O` [SALASOL A], the lowest concentration to inhibit growth (MIC) was 28.2 µM (≈ 15 µg/mL). Next, `CC[C@@H](CO)NCCN[C@@H](CC)CO` [ETHAMBUTOL]: 30.6 µM (≈ 6.25 µg/mL).

The term MIC denotes the lowest concentration found to suppress growth. Lower therefore signals a more susceptible organism.
